The values that follow come from US20240400559A1, “SOLID STATE EMITTERS BASED ON PYRIDINIUM SCAFFOLDS” (Council of Scientific and Industrial Research, priority 2021, published 2024).

The data set is described as follows: Solution state photophysical studies (absorption, emission, lifetime) in DMSO. In kind it is physicochemical. As to conditions: in DMSO at RT; for λmax (abs.) / λmax (em.): 10 μM; for λmax (em.): under UV light (λexc=365 nm). The method, then:
For solution state photophysical studies (absorption, emission and lifetime) stock for all compounds (1 mM concentration) were prepared in DMSO solvent. For the measurement, the required volume was added from the stock solution in 1 mL solution to make it final concentration as 10 μM. For aggregation induced emission (AIE) measurement, different ratio of DCM-Hexane solvent mixture (0-99%) was prepared by adding required volume of DCM and Hexane, subsequently measurements were performed by maintaining 10 μM dye concentration in each 1 mL solution.
The AIE images were taken in 5 ml vials which were placed on a handled UV (excitation wavelength 365 nm) instrument. For the solid-state absorption and emission measurements, powder samples were prepared by dissolving compound and BaSO4 in DCM and then evaporated to dryness. Solution Spectra were measured in HORIBA Jobin Yvon Fluorolog using 1 cm path length quartz cuvette. To make the powder more homogenous, mixtures were grinded effectively for few minutes.

Turning to `COc1ccc(-c2cccc3c4ccccc4cc(-c4cc(OC)cc(OC)c4)[n+]23)cc1.O=S(=O)([O-])C(F)(F)F` [2y, 6-(3,5-dimethoxyphenyl)-4-(4-methoxyphenyl)pyrido[2,1-a]isoquinolin-5-ium trifluoromethanesulfonate], the Lifetime came to 5.72 ns, the “Rel. QY” value is listed as 0.006, the Stokes shift turned out to be 139 nm and the “λmax (abs.)” value was found to be 401 nm. For the same molecule, the “λmax (em.)” value was 540 nm.

On to `COc1ccc(-c2cccc3c4cc(C)cc(C)c4cc(-c4ccccc4)[n+]23)cc1.O=S(=O)([O-])C(F)(F)F` [2t, 4-(4-methoxyphenyl)-8.10-dimethyl-6-phenylpyrido[2,1-a]isoquinolin-5-ium trifluoro methanesulfonate], for which the Lifetime was 4.49 ns, the “Rel. QY” value amounted to 0.024, the Stokes shift worked out at 132 nm and the “λmax (abs.)” value is 410 nm. Moreover, the “λmax (em.)” value worked out at 542 nm.

As to `COc1ccc(-c2cccc3c4ccc(C)cc4cc(-c4ccccc4)[n+]23)cc1.O=S(=O)([O-])C(F)(F)F` [2r, 4-(4-methoxyphenyl)-9-methyl-6-phenylpyrido[2,1-a]isoquinolin-5-ium trifluoro methanesulfonate], the Lifetime was 5.93 ns, the “Rel. QY” value was 0.017, the Stokes shift is reported as 133 nm and the “λmax (abs.)” value is recorded as 405 nm. The “λmax (em.)” value came out at 538 nm.

Take `COc1ccc(-c2cccc3c4ccccc4cc(-c4cccc5ccccc45)[n+]23)cc1.O=S(=O)([O-])C(F)(F)F` [2aa, 4-(4-methoxyphenyl)-6-(naphthalen-1-yl)pyrido[2,1-a]isoquinolin-5-ium trifluoromethanesulfonate]: the Lifetime is 4.09 ns, the “Rel. QY” value came out at 0.062, the Stokes shift was found to be 143 nm and the “λmax (abs.)” value came to 397 nm. In addition, the “λmax (em.)” value was found to be 540 nm.

For `COc1ccc(-c2cccc3c4cc(C)ccc4cc(-c4ccccc4)[n+]23)cc1.O=S(=O)([O-])C(F)(F)F` [2m, 4-(4-methoxyphenyl)-10-methyl-6-phenylpyrido[2,1-a]isoquinolin-5-ium trifluoro methanesulfonate], the Lifetime was found to be 3.6 ns, the “Rel. QY” value stood at 0.020, the Stokes shift was 131 nm and the “λmax (abs.)” value turned out to be 409 nm. In addition, the “λmax (em.)” value was 540 nm.

On to `O=S(=O)([O-])C(F)(F)F.c1ccc(-c2cc3ccccc3c3cccc(-c4cc5ccccc5c5ccccc45)[n+]23)cc1` [2j, 4-(phenanthren-9-yl)-6-phenylpyrido[2,1-a]isoquinolin-5-ium trifluoromethane sulfonate], for which the Lifetime came to 5.19 ns, the “Rel. QY” value is listed as 0.220, the Stokes shift came out at 147 nm and the “λmax (abs.)” value turned out to be 397 nm. For the same molecule, the “λmax (em.)” value was found to be 544 nm.

Turning to `COc1ccc(-c2cccc3c4cc(OC)cc(OC)c4cc(-c4ccccc4)[n+]23)cc1.O=S(=O)([O-])C(F)(F)F` [2u, 8,10-dimethoxy-4-(4-methoxyphenyl)-6-phenylpyrido[2,1-a]isoquinolin-5-ium trifluoromethanesulfonate], the Lifetime is on record as 4.2 ns, the “Rel. QY” value came to 0.125, the Stokes shift is given as 172 nm and the “λmax (abs.)” value came to 430 nm. Also, the “λmax (em.)” value turned out to be 602 nm.

For the molecule `COc1ccc(-c2cccc3c4ccccc4cc(-c4ccccc4)[n+]23)cc1.O=S(=O)([O-])C(F)(F)F` [2f, 4-(4-methoxyphenyl)-6-phenylpyrido[2,1-a]isoquinolin-5-ium trifluoromethane sulfonate], the Lifetime is 5.32 ns, the “Rel. QY” value is reported as 0.018, the Stokes shift is given as 136 nm and the “λmax (abs.)” value is 404 nm. In addition, the “λmax (em.)” value came to 540 nm.

As for `O=S(=O)([O-])C(F)(F)F.c1ccc(-c2cccc3c4ccccc4cc(-c4ccccc4)[n+]23)cc1` [2a, 4,6-diphenylpyrido[2,1-a]isoquinolin-5-ium trifluoromethanesulfonate], the Lifetime came to 5.84 ns, the “Rel. QY” value was 0.015, the Stokes shift is listed as 116 nm and the “λmax (abs.)” value was determined as 392 nm. The “λmax (em.)” value amounted to 508 nm.

On to `COc1ccc(-c2cccc3c4cc(-c5cccc6ccccc56)ccc4cc(-c4ccccc4)[n+]23)cc1.O=S(=O)([O-])C(F)(F)F` [2p, 4-(4-methoxyphenyl)-10-(naphthalen-1-yl)-6-phenylpyrido[2,1-a]isoquinolin-5-ium trifluoromethanesulfonate], for which the Lifetime came out at 3.38 ns, the “Rel. QY” value was found to be 0.032, the Stokes shift is reported as 140 nm and the “λmax (abs.)” value is given as 412 nm. In addition, the “λmax (em.)” value is 552 nm.

With `COc1ccc(-c2cccc3c4cc(-c5ccccc5)ccc4cc(-c4ccccc4)[n+]23)cc1.O=S(=O)([O-])C(F)(F)F` [2o, 4-(4-methoxyphenyl)-6,10-diphenylpyrido[2,1-a]isoquinolin-5-ium trifluoro methanesulfonate], the Lifetime came out at 3.72 ns, the “Rel. QY” value came out at 0.036, the Stokes shift was found to be 129 nm and the “λmax (abs.)” value worked out at 417 nm. The “λmax (em.)” value is listed as 546 nm.
